Tests used:
Monochoria vaginalis [1] = assay: Activity assay of compositions, post-emergence spray of stems and leaves; format: in vivo; conditions: for Control effect of B applied alone in a corresponding dose (%): 21 days
Description: (§1) The required active ingredient B was purchased from a reagent company or a technical material manufacturer or synthesized by a conventional method. […] The technical materials were all dissolved with acetone solvents and diluted with aqueous solution of 0.1% Tween® 80 emulsifier, which should be used immediately after dilution.
(§2) Weeds were cultivated by a pot culture method. […] Weed seeds with plump and uniform grains were selected, soaked in lukewarm water at 25° C. for 6 hours, and accelerated to germinate in a 28° C. biochemical incubator (in darkness). The weed seeds that had just germinated were evenly placed on the surface of the soil and then covered with 0.5-1 cm soil according to the sizes of seeds.
(§3) The weeds were cultured in a controllable sunlight greenhouse at 20-30° C., in natural light, and with relative humidity of 57%-72%. The soil was loam with an organic matter content of 1.63%, a pH value of 7.1, alkali-hydrolyzable nitrogen of 84.3 mg/kg, rapidly available phosphorus of 38.5 mg/kg, and rapidly available potassium of 82.1 mg/kg.
(§4) Each treatment was repeated 4 times for 3 pots. Each pot was seeded with 20 weed seeds.
(§5) The drugs were applied once in total in the experiment. When at the stage of 1.5-2 leaves, the weeds were thinned out to maintain 10 strains per pot. Thirty strains were kept in each treatment and then continued to be cultured until the Erigeron canadensis reached 10 cm tall and other weeds in their 3-4 leaf stage for further treatment.
(§6) The well-cultured test materials were evenly placed on a 0.5 m^2 platform and foliage-sprayed by the 3WP-2000-type walking spray tower at a dosage of […] and a spray pressure of 0.3 MPa. After all the drug solution was sprayed, the air valve was closed. And 30 seconds later, the door of the spray tower was opened, and the nutritional bowl was taken out. Next, the air valve was opened, and the spray tube was cleaned by spraying 50 ml of water. The test materials were transferred to and routinely cultured in a greenhouse after the treatment.
(§7) A method for investigating absolute numbers was employed. The whole seedlings of the survival weeds were cut along the soil surface with a blade, and the fresh weight of the weeds was weighed by an analytical balance. For dead weeds, the fresh weight thereof was considered zero.
(§8) The investigation was performed 21 days after the treatment for once in total.
(§9) The theoretical fresh weight inhibition rate of a mixed combination of each treatment was calculated by the Gowing method (E0=X+Y−X*Y/100). Then compared with the measured inhibition rate (E), the type of the combined action of the combination of the two on weeds was evaluated, which was a synergistic effect when E−E0>10; an antagonistic effect when E−E0<−10%; an additional effect when −10≤E−E0≤100. An optimal ratio was determined according to factors such as the actual control effects, characteristics of herbicides, balance of the formulation, etc. In the formula, X represents the fresh weight inhibition rate of the active ingredient A in a dosage of P; Y represents the fresh weight inhibition rate of the active ingredient B in a dosage of Q. The statistical results are shown in Table 5 below.

Veronica [2] = assay: Post-emergence test on weeds; format: in vivo; set-up: key: 0 = no effect, 9 = completely dead (levels by growth control rate); conditions: 30 g a.i./ha, 3 weeks after application
Description: (§10) The criteria for activity levels of plant damage (i.e., growth control rate) are as follows: • Level 9: completely dead; • Level 8: growth control rate is greater than or equal to 90% and less than 100%; • Level 7: growth control rate is greater than or equal to 80% and less than 90%; • Level 6: growth control rate is greater than or equal to 70% and less than 80%; • Level 5: growth control rate is greater than or equal to 50% and less than 70%; • Level 4: growth control rate is greater than or equal to 30% and less than 50%; • Level 3: growth control rate is greater than or equal to 20% and less than 30%; • Level 2: growth control rate is greater than or equal to 10% and less than 20%; • Level 1: growth control rate is less than 10%; • Level 0: no effect.
(§11) The above growth control rates are fresh weight control rates.
(§12) Monocotyledonous and dicotyledonous weed seeds (Descurainia sophia, Capsella bursa-pastoris, Abutilon theophrasti, Galium spurium, Stellaria media, Lithospermum arvense, Rorippa indica, Alopecurus aequalis, Alopecurus japonicus, Eleusine indica, Beckmannia syzigachne, Sclerochloa dura, Erigeron canadensis, Phleum paniculatum, Veronica, Bromus japonicus, Aegilops tauschii, Phalaris arundinacea, Amaranthus retroflexus, Chenopodium, Commelina communis, Cichorium endivia, Convolvulus arvensis, Cirsium arvense, Solanum nigrum, Acalypha australis, Digitaria sanguinalis, Echinochloa crusgalli, Setaria viridis, Setaria pumila, Leptochloa chinensis, Monochoria vaginalis, Sagittaria trifolia, Schoenoplectiella juncoides, Cyperus rotundus, Cyperus iria, Cyperus difformis, Fimbristylis, Portulaca oleracea, Xanthium sibiricum, Ipomoea nil, Eschenbachia japonica, etc.) and major crop seeds (wheat, maize, paddy rice, soybean, cotton, oilseed rape, millet, sorghum, potato, sesame, castor plant, Chinese cabbage, radish, etc.) were placed in plastic pots filled with soil and then covered with 0.5-2 cm of soil to allow them to grow in a favorable greenhouse environment. Two weeks after sowing, the test plants were treated at the stage of 2-3 leaves. The test compounds of the present invention were individually dissolved with acetone, then added with Tween® 80, with 1.5 L/ha of methyl oleate emulsifiable concentrate as a synergist, diluted into solution of a certain concentration using a certain amount of water, and sprayed to plants using a spray tower. After drug application, the experimental results on weeds were collected after 3 weeks of cultivation in a greenhouse. The compounds were applied at 120, 60, 30, and 15 g a.i./ha in triplicate, and the results were averaged.

Chinese cabbage = assay: Post-emergence test, crop safety; conditions: in vivo, 3 weeks
Description: as §10, §11, §12

Maize = assay: Post-emergence test, crop safety; conditions: in vivo, 3 weeks
Description: as §10, §11, §12

Oilseed rape = assay: Post-emergence test, crop safety; conditions: in vivo, 3 weeks
Description: as §10, §11, §12

Paddy rice = assay: Post-emergence test, crop safety; conditions: in vivo, 3 weeks
Description: as §10, §11, §12

Radish = assay: Post-emergence test, crop safety; conditions: in vivo, 3 weeks
Description: as §10, §11, §12

Wheat = assay: Post-emergence test, crop safety; conditions: in vivo, 3 weeks
Description: as §10, §11, §12

Bidens tripartita = assay: Control effect evaluation on weeds in paddy fields; format: in vivo; conditions: 75 g a.i./ha, paddy pot, 14th day after treatment, seeds resistant to pyrazosulfuron-ethyl
Description: as §10, §11
(§13) After paddy field soil was loaded into a 1/1,000,000 ha pot, the seeds of Monochoria vaginalis, Pontederia korsakowii and Bidens tripartita were sowed and gently covered with soil, then left to stand in a greenhouse with water storage of 0.5-1 cm deep. The tuber of Sagittaria trifolia was planted on the next day or 2 days later. The water storage was kept at a depth of 3-4 cm thereafter. When the Monochoria vaginalis, Pontederia korsakowii and Bidens tripartita reached their 0.5-leaf stages and the Sagittaria trifolia reached the primary leaf stage, WP or SC aqueous dilutions of the compounds of the present invention formulated according to customary formulation methods were homogeneously dripped for treatment to the specified effective amount using pipettes.
(§14) The effects were evaluated according to the above-mentioned criteria for activity levels.

Monochoria vaginalis [3] = assay: Control effect evaluation on weeds in paddy fields; format: in vivo; conditions: 75 g a.i./ha, paddy pot, 14th day after treatment, seeds resistant to pyrazosulfuron-ethyl
Description: as §10, §11, §13, §14

Pontederia korsakowii = assay: Control effect evaluation on weeds in paddy fields; format: in vivo; conditions: 75 g a.i./ha, paddy pot, 14th day after treatment, seeds resistant to pyrazosulfuron-ethyl
Description: as §10, §11, §13, §14

[4] = system: paddy rice (japonica rice); conditions: japonica, paddy rice, in vivo, 21 days
Description: as §10, §11
In addition, after being loaded into the 1/1,000,000 ha pot, the paddy field soil was leveled to keep the water storage at a depth of 3-4 cm. The paddy rice (japonica rice) at 3-leaf stage was transplanted at a transplanting depth of 3 cm on the next day. The compounds of the present invention were treated in the same manner as above on the 5th day after the transplantation.
as §14

Euphorbia helioscopia = assay: Activity assay of compositions, post-emergence spray of stems and leaves; format: in vivo; conditions: A 3 g a.i./ha, fresh weight inhibition, 21 days after treatment, listed as A
Description: (§15) The required active ingredient B was purchased from a reagent company or a technical material manufacturer or synthesized by a conventional method. The active ingredient A was Compound 74 in Table 1. The technical materials were all dissolved with acetone solvents and diluted with aqueous solution of 0.1% Tween® 80 emulsifier, which should be used immediately after dilution.
as §2, §3, §4, §5, §6, §7, §8, §9

Lindernia procumbens = assay: as above; format: in vivo; conditions: for Control effect of B applied alone in a corresponding dose (%): 21 days
Description: as §15, §2, §3, §4, §5, §6, §7, §8, §9

Veronica [5] = assay: as above; format: in vivo; conditions: A 3 g a.i./ha, fresh weight inhibition, 21 days after treatment
Description: as §1, §2, §4, §5, §6, §7, §8
as §9, with “Then compared with the measured inhibition rate (E), the type of the combined action of the combination of the two on weeds was evaluated, which was a synergistic effect when E−E0>10; an antagonistic effect when E−E0<−10%; an additional effect when −10≤E−E0≤100.” left out

[6] = A 3 g a.i./ha, fresh weight inhibition, 21 days after treatment

Row | SMILES | activity level of plant damage (growth control rate), Veronica (Veronica [2]) | activity level of plant damage (growth control rate), Chinese cabbage (Chinese cabbage) | activity level of plant damage (growth control rate), Maize (Maize) | activity level of plant damage (growth control rate), Oilseed rape (Oilseed rape) | activity level of plant damage (growth control rate), Paddy rice (Paddy rice) | activity level of plant damage (growth control rate), Radish (Radish) | activity level of plant damage (growth control rate), Wheat (Wheat) | activity level, Bidens tripartita (Bidens tripartita) | activity level, Monochoria vaginalis (Monochoria vaginalis [3]) | activity level, Pontederia korsakowii (Pontederia korsakowii) | activity level, Paddy rice [4] | other results
1 | CC(C)N1C(=O)c2ccccc2NS1(=O)=O [Bentazone, bentazone] | – | – | – | – | – | – | – | – | – | – | – | Control effect of B applied alone in a corresponding dose (%) (Monochoria vaginalis [1]; B 150 g a.i./ha): 45.2%; Control effect of B applied alone in a corresponding dose (%) (Monochoria vaginalis [1]; B 300 g a.i./ha): 60.5%
2 | CCOC(=O)c1nc(-c2ccc(C(F)(F)F)c(OC)c2F)nc(N)c1OC [Compound 24] | 9 | 0 | 0 | 0 | 0 | 0 | 0 | 9 | 9 | 9 | 0 | –
3 | COc1c(N)nc(-c2ccc(C(F)(F)F)c(OC)c2F)nc1C(=O)OCC(F)(F)F [Compound 62] | 9 | 0 | 0 | 0 | 0 | 0 | 0 | 9 | 9 | 9 | 0 | –
4 | COc1c(N)nc(-c2ccc(C(F)(F)F)c(OC)c2F)nc1C(=O)OC1CC1 [Compound 116] | 9 | 0 | 0 | 0 | 0 | 0 | 0 | 9 | 9 | 9 | 0 | –
5 | COCCOC(=O)c1nc(-c2ccc(C(F)(F)F)c(OC)c2F)nc(N)c1OC [Compound 74] | 9 | 0 | 0 | 0 | 0 | 0 | 0 | – | – | – | – | Control effect of A applied alone in a corresponding dose (%) (Euphorbia helioscopia): 58.0%; Control effect of A applied alone in a corresponding dose (%) (Lindernia procumbens; [6]): 37.7%; Control effect of A applied alone in a corresponding dose (%) (Veronica [5]): 62.3%; Control effect of A applied alone in a corresponding dose (%) (Monochoria vaginalis [1]; [6]): 66.4%
6 | COC(=O)c1nc(-c2ccc(C(F)(F)F)c(OC)c2F)nc(N)c1OC [Compound 3] | 9 | 0 | 0 | 0 | 0 | 0 | 0 | 9 | 9 | 9 | 0 | –
7 | CCC(=O)Nc1ccc(Cl)c(Cl)c1 [Propanil, propanil] | – | – | – | – | – | – | – | – | – | – | – | Control effect of B applied alone in a corresponding dose (%) (Monochoria vaginalis [1]; B 600 g a.i./ha): 22.1%; Control effect of B applied alone in a corresponding dose (%) (Monochoria vaginalis [1]; B 1200 g a.i./ha): 37.4%
8 | CC(C)C12CCC(C)(O1)C(OCc1c(F)cccc1Br)C2 (stereo not drawn) | – | – | – | – | – | – | – | – | – | – | – | Control effect of B applied alone in a corresponding dose (%) (Lindernia procumbens; B 7.5 g a.i./ha): 42.8%; Control effect of B applied alone in a corresponding dose (%) (Lindernia procumbens; B 15 g a.i./ha): 60.7%
9 | COc1c(N)nc(-c2ccc(C(F)(F)F)c(OC)c2F)nc1C(=O)ON=C(C)C [Compound 106] | 9 | 0 | 0 | 0 | 0 | 0 | 0 | 9 | 9 | 9 | 0 | –
